Source: patent publication US20190382445A1, “PEPTIDE HAVING MELANOGENESIS-INHIBITING ACTIVITY AND COMPOSITION COMPRISING SAME” (RUBY CROWN CO. LTD., priority 2016, published 2019)
Ends that are not written are not given here.

Tests used:
[1] = tested on: human epidermal melanocytes (HEM); experiment: Melanin content in HEM stimulated with α-MSH or L-tyrosine; format: cell-based
From the text: FIG. 5 is an experimental result showing effects of peptide B6 on cell viability of human epidermal melanocytes (HEM), melanin content and human tyrosinase (TYR) enzymatic activity. […] The intracellular and extracellular melanin contents were normalized with respect to the total protein content. […] Data are expressed in percent (%) as mean±standard error (mean±SE, n=3) compared to the vehicle control group. In the figures, #represents p<0.05 compared to the control group and * represents p<0.05 compared to cells stimulated only with tyrosine.
(§1) Melanogenesis-inhibitory effects of the analyte (the peptides) was confirmed using the B16-F10 cell line and HEM. B16-F10 cells were treated with a test peptide at different concentrations for 60 minutes and stimulated using a 100 nM α-MSH for 72 hours. While HEM was also treated with the test peptide at different concentrations for 60 minutes and cultured with 100 nM α-MSH or 4.0 mM L-tyrosine while replacing the culture medium every 48 hours for 6 days. Using the culture medium used for culturing cells (conditioned medium), extracellular melanin level was measured. On the other hand, intercellular melanin was extracted with 0.1M NaOH at 60° C. for 60 minutes. A melanin content was determined by measuring an absorbance at 475 nm according to a spectroscopic method. The resultant values were subjected to normalization with respect to the total protein content of the cell.
(§2) Cell viability was determined by treating the cells with B6 at different concentrations of up to 1 mM for 24 hours (A in FIG. 5). […] Further, effects on melanin content in the cells were examined by pre-treatment of the cells with B6 peptide at different concentrations of up to 300 μM, and then, stimulating the same with α-MSH at 100 nM or tyrosine at 4 mM for […] (B, C in FIG. 5). As a positive control group for melanogenesis inhibition, arbutin was used.

B16-F10 cells [2] = experiment: Melanin content in α-MSH-stimulated B16-F10 cells (absorbance at 475 nm); format: cell-based, murine; details: for melanin inhibitory effect of short peptides compared to B6 peptide: concentrations of 100 μM to 10 μM
Protocol: FIG. 2 is an experimental result showing the effect of each hexapeptide on cellular melanin biosynthesis. FIG. 2A represents a peptide wherein the type of amino acids fixed at 3 positions in the amino acid sequence of the amino acids, while the type of amino acids is altered at the other 3 positions. FIG. 2B represents a peptide wherein the amino acid sequence was defined. The cell-based assay in FIG. 2 is conducted by treating B16-F10 cells with a vehicle or peptide at a predetermined concentration, stimulating the same with α-MSH at 100 nM, and measuring absorbance at 475 nm after 72 hours to determine melanin content. Data are expressed in percent (%) as mean ± standard error (mean±SE, n=3) compared to the vehicle control group. In the figures, # means p<0.05 compared to the control group and * means p<0.05 compared to cells stimulated only with α-MSH. The amino acid sequences described in FIG. 2 are all represented in the direction from the amino terminal to the carboxy terminal. An amino functional group (—NH2) shown in the peptide terminal is one added by carboxy terminal amidation used in peptide synthesis.
The cell-based Assay in FIG. 3 is conducted by treating B16-F10 cells with a vehicle or peptide at a predetermined concentration, stimulating the same with 100 nMα-[…], and measuring the absorbance at 475 nm after 72 hours to determine the melanin content. Data are expressed in percent (%) as mean±standard, error (mean±SE, n=3) compared to the vehicle control group. In the figures, # means p<0.05 compared to the control group and * means p<0.05 compared to cells stimulated only with α-MSH. The amino acid sequences described in FIG. 2 are all represented in the direction from the amino terminal to the carboxy terminal. An acetyl group (Ac—) shown in the peptide amino terminal or an amino functional group (—NH2) shown in the carboxy terminal is one added by chemical synthesis of peptide.
as §1

B16-F10 cells [3] = experiment: Cell viability by MTT assay, B16-F10; format: cell-based, murine; details: up to 300 μM, 24 hours (tested up to 1 mM)
Protocol: (§3) Cell viability was determined by 3-(4,5-dimethylthiazol-2-yl)-2,5-diphenyltetrazolium bromide (MTT) assay. B16-F10 cell line and HEM were treated with test peptides at different concentrations for 24 hours. After washing with PBS, the cells were in a culture medium 100 including 1 mg/mL MTT (Amresco, Solon, Ohio, USA) added thereto for 3 hours. After removing the culture medium, formazan accumulated in the cells was […] using isopropanol and subjected to determination of absorbance at 595 nm using a SPECTROstar Nano microplate reader (BMG LABTECH GmbH, Ortenberg, Germany).
Cell viability was determined by treating the cells with B6 at different concentrations up to 1 mM for 24 hours (A in FIG. 4). […] Further, effects on melanin content in the cells were examined by pre-treatment of the cells with B6 peptide at different concentrations of up to 300 μM, and then, stimulating the same with α-MSH at 100 nM for 72 hours (B in FIG. 4).

[4] = tested on: human epidermal melanocytes (HEM); experiment: Cell viability by MTT assay, HEM; format: cell-based; details: up to 300 μM, 24 hours (tested up to 1 mM)
Protocol: as §3, §2

In the case of `N[C@@H](Cc1ccc(O)cc1)C(=O)O` [L-tyrosine], the “extracellular and intracellular melanin contents, effect of stimulus L-tyrosine” value ([1]; tyrosine at 4 mM, HEM) is reported as “increased extracellular and intracellular melanin contents”.
With `OC[C@H]1O[C@@H](Oc2ccc(O)cc2)[C@H](O)[C@@H](O)[C@@H]1O` [arbutin] the “inhibition of increase in melanin content by L-tyrosine” value ([1]; HEM stimulated with 4 mM L-tyrosine, peptide up to 300 μM) was “effectively inhibited”.
“Ac-Ser-Tyr-Ser-Met-Glu-His-Phe-Arg-Trp-Gly-Lys-Pro-Val-NH2 (Ac-SYSMEHFRWGKPV-NH2) [α-MSH, agent of melanocortin 1 receptor used to stimulate melanogenesis, reference compound]” was tested, and the “melanin content, effect of stimulus” value (B16-F10 cells [2]; α-MSH alone, B16-F10 cells) was “increased melanin content” and the “melanogenesis, effect of stimulus α-MSH” value ([1]; α-MSH at 100 nM, HEM) was “did not show significant effect on melanogenesis”.
In the case of FSHHLG [C1], the “melanin inhibitory effect of short peptides compared to B6 peptide” value (B16-F10 cells [2]; 100 nM α-MSH, 72 hours) is reported as “melanin inhibitory effect similar to B6 peptide”.
“FSHHLG-NH2 [B6, Phe-Ser-His-His-Leu-Gly]” was tested, and the cell viability (B16-F10 cells [3]) was “did not affect the viability” and the cell viability [4] was “did not affect the viability”.
For Phe-Ser-His-His-Leu (FSHHL; C2 peptide), the “melanin inhibitory effect of short peptides compared to B6 peptide” value (B16-F10 cells [2]; 100 nM α-MSH, 72 hours) was “did not substantially inhibit melanogenesis”.
With Ser-His-His-Leu-Gly (SHHLG; C3 peptide) the “melanogenesis inhibitory effect of short peptide” value (B16-F10 cells [2]; 100 μM, 100 nM α-MSH, 72 hours) was “excellent in melanogenesis inhibitory effect”.
